From PubChem BioAssay (NCI)
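Method: 48-hour compound exposure of cells in 96-well plates, five concentrations, linear interpolation of endpoints. Here, GI50 denotes the concentration required for 50% inhibition of growth. TGI is the concentration that stops growth completely.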

Experiments:
Assay in all cases: DTP human tumour cell line panel, 48 h
A498 renal = system: A498 renal
SNB-75 CNS = system: SNB-75 CNS
NCI-H460 lung = system: NCI-H460 lung
HT29 colon = system: HT29 colon
OVCAR-5 ovarian = system: OVCAR-5 ovarian
NCI/ADR-RES ovarian = system: NCI/ADR-RES ovarian
TK-10 renal = system: TK-10 renal
KM12 colon = system: KM12 colon
EKVX NSCLC = system: EKVX NSCLC
SK-OV-3 ovarian = system: SK-OV-3 ovarian
CAKI-1 renal = system: CAKI-1 renal
MDA-MB-435 = system: MDA-MB-435
HCT-15 colon = system: HCT-15 colon
K-562 leukemia = system: K-562 leukemia
LOX IMVI melanoma = system: LOX IMVI melanoma
UACC-257 melanoma = system: UACC-257 melanoma
MOLT-4 leukemia = system: MOLT-4 leukemia
NCI-H23 lung = system: NCI-H23 lung
SF-268 CNS = system: SF-268 CNS
SK-MEL-5 melanoma = system: SK-MEL-5 melanoma
HCC-2998 colon = system: HCC-2998 colon
DU-145 prostate = system: DU-145 prostate
HS 578T breast = system: HS 578T breast
T-47D breast = system: T-47D breast
COLO 205 colon = system: COLO 205 colon
OVCAR-8 ovarian = system: OVCAR-8 ovarian
786-0 renal = system: 786-0 renal
SN12C renal = system: SN12C renal
NCI-H226 lung = system: NCI-H226 lung
HOP-62 NSCLC = system: HOP-62 NSCLC
RXF 393 renal = system: RXF 393 renal
PC-3 prostate = system: PC-3 prostate
HCT-116 colon = system: HCT-116 colon
RPMI-8226 leukemia = system: RPMI-8226 leukemia
UACC-62 melanoma = system: UACC-62 melanoma
SR leukemia = system: SR leukemia
UO-31 renal = system: UO-31 renal
A549 NSCLC = system: A549 NSCLC
HOP-92 NSCLC = system: HOP-92 NSCLC
SW-620 colon = system: SW-620 colon
OVCAR-4 ovarian = system: OVCAR-4 ovarian
IGROV1 ovarian = system: IGROV1 ovarian
CCRF-CEM leukemia = system: CCRF-CEM leukemia
SK-MEL-2 melanoma = system: SK-MEL-2 melanoma
OVCAR-3 ovarian = system: OVCAR-3 ovarian
HL-60(TB) leukemia = system: HL-60(TB) leukemia
SNB-19 CNS = system: SNB-19 CNS
BT-549 breast = system: BT-549 breast
SK-MEL-28 melanoma = system: SK-MEL-28 melanoma
NCI-H522 lung = system: NCI-H522 lung
ACHN renal = system: ACHN renal
MDA-MB-231 breast = system: MDA-MB-231 breast
SF-295 CNS = system: SF-295 CNS
U251 CNS = system: U251 CNS
MCF7 breast = system: MCF7 breast
SF-539 CNS = system: SF-539 CNS
M14 melanoma = system: M14 melanoma
MALME-3M melanoma = system: MALME-3M melanoma

Cc1ccc(S(=O)(=O)Oc2ccccc2-c2ccccc2)cc1
GI50 (A498 renal): 1.42 µM
TGI (A498 renal): 8.94 µM
GI50 (SNB-75 CNS): 2.63 µM
TGI (SNB-75 CNS): > 29 µM
GI50 (NCI-H460 lung): 2.32 µM
TGI (NCI-H460 lung): > 100 µM
GI50 (HT29 colon): 1.18 µM
TGI (HT29 colon): > 43.2 µM
GI50 (OVCAR-5 ovarian): 8.26 µM
TGI (OVCAR-5 ovarian): > 100 µM
GI50 (NCI/ADR-RES ovarian): 1.13 µM
TGI (NCI/ADR-RES ovarian): > 28.9 µM
GI50 (TK-10 renal): 12 µM
TGI (TK-10 renal): > 100 µM
GI50 (KM12 colon): 0.743 µM
TGI (KM12 colon): > 100 µM
GI50 (EKVX NSCLC): 3.21 µM
TGI (EKVX NSCLC): > 100 µM
GI50 (SK-OV-3 ovarian): 3.24 µM
TGI (SK-OV-3 ovarian): > 45.8 µM
GI50 (CAKI-1 renal): 1.3 µM
TGI (CAKI-1 renal): > 25.5 µM
GI50 (MDA-MB-435): 0.249 µM
TGI (MDA-MB-435): 0.834 µM
GI50 (HCT-15 colon): 1.62 µM
TGI (HCT-15 colon): > 100 µM
GI50 (K-562 leukemia): 0.524 µM
TGI (K-562 leukemia): > 100 µM
GI50 (LOX IMVI melanoma): 4.22 µM
TGI (LOX IMVI melanoma): > 100 µM
GI50 (UACC-257 melanoma): 4.35 µM
TGI (UACC-257 melanoma): > 100 µM
GI50 (MOLT-4 leukemia): 3.9 µM
TGI (MOLT-4 leukemia): > 100 µM
GI50 (NCI-H23 lung): 5.21 µM
TGI (NCI-H23 lung): > 100 µM
GI50 (SF-268 CNS): 5.95 µM
TGI (SF-268 CNS): > 100 µM
GI50 (SK-MEL-5 melanoma): 2.98 µM
TGI (SK-MEL-5 melanoma): > 100 µM
GI50 (HCC-2998 colon): 3.87 µM
TGI (HCC-2998 colon): > 72.7 µM
GI50 (DU-145 prostate): 2.87 µM
TGI (DU-145 prostate): > 29.8 µM
GI50 (HS 578T breast): 3.09 µM
TGI (HS 578T breast): > 26.9 µM
GI50 (T-47D breast): 5.14 µM
TGI (T-47D breast): > 100 µM
GI50 (COLO 205 colon): 2.25 µM
TGI (COLO 205 colon): 8.41 µM
GI50 (OVCAR-8 ovarian): 4.86 µM
TGI (OVCAR-8 ovarian): > 100 µM
GI50 (786-0 renal): 8.26 µM
TGI (786-0 renal): > 100 µM
GI50 (SN12C renal): 6.18 µM
TGI (SN12C renal): > 100 µM
GI50 (NCI-H226 lung): 21.2 µM
TGI (NCI-H226 lung): > 100 µM
GI50 (HOP-62 NSCLC): 4.24 µM
TGI (HOP-62 NSCLC): > 100 µM
GI50 (RXF 393 renal): 2.31 µM
TGI (RXF 393 renal): > 27.7 µM
GI50 (PC-3 prostate): 3.52 µM
TGI (PC-3 prostate): > 100 µM
GI50 (HCT-116 colon): 2.85 µM
TGI (HCT-116 colon): > 100 µM
GI50 (RPMI-8226 leukemia): 3.42 µM
TGI (RPMI-8226 leukemia): > 55.6 µM
GI50 (UACC-62 melanoma): 2.3 µM
TGI (UACC-62 melanoma): > 100 µM
GI50 (SR leukemia): 0.465 µM
TGI (SR leukemia): > 70.7 µM
GI50 (UO-31 renal): 4.01 µM
TGI (UO-31 renal): > 75.7 µM
GI50 (A549 NSCLC): 4.4 µM
TGI (A549 NSCLC): > 100 µM
GI50 (HOP-92 NSCLC): 5.73 µM
TGI (HOP-92 NSCLC): > 100 µM
GI50 (SW-620 colon): 1.03 µM
TGI (SW-620 colon): > 100 µM
GI50 (OVCAR-4 ovarian): 7.13 µM
TGI (OVCAR-4 ovarian): > 100 µM
GI50 (IGROV1 ovarian): 2.16 µM
TGI (IGROV1 ovarian): > 100 µM
GI50 (CCRF-CEM leukemia): 2.48 µM
TGI (CCRF-CEM leukemia): > 100 µM
GI50 (SK-MEL-2 melanoma): 6.55 µM
TGI (SK-MEL-2 melanoma): > 26.1 µM
GI50 (OVCAR-3 ovarian): 1.81 µM
TGI (OVCAR-3 ovarian): 6.94 µM
GI50 (HL-60(TB) leukemia): 2.12 µM
TGI (HL-60(TB) leukemia): > 100 µM
GI50 (SNB-19 CNS): 5.24 µM
TGI (SNB-19 CNS): > 100 µM
GI50 (BT-549 breast): 8.41 µM
TGI (BT-549 breast): > 100 µM
GI50 (SK-MEL-28 melanoma): 7.77 µM
TGI (SK-MEL-28 melanoma): > 100 µM
GI50 (NCI-H522 lung): 0.542 µM
TGI (NCI-H522 lung): 7.83 µM
GI50 (ACHN renal): 6.81 µM
TGI (ACHN renal): > 100 µM
GI50 (MDA-MB-231 breast): 3.7 µM
TGI (MDA-MB-231 breast): > 100 µM
GI50 (SF-295 CNS): 0.702 µM
TGI (SF-295 CNS): 3.3 µM
GI50 (U251 CNS): 3.81 µM
TGI (U251 CNS): > 100 µM
GI50 (MCF7 breast): 2.47 µM
TGI (MCF7 breast): > 100 µM
GI50 (SF-539 CNS): 2.38 µM
TGI (SF-539 CNS): 8.1 µM
GI50 (M14 melanoma): 2.05 µM
TGI (M14 melanoma): > 86.1 µM

C[n+]1cn(-c2ccc([N+](=O)[O-])cn2)c2ccccc21
TGI (A498 renal): > 100 µM
TGI (SNB-75 CNS): > 100 µM
TGI (NCI-H460 lung): > 100 µM
TGI (HT29 colon): > 100 µM
TGI (OVCAR-5 ovarian): > 100 µM
TGI (NCI/ADR-RES ovarian): > 100 µM
TGI (TK-10 renal): > 100 µM
TGI (KM12 colon): > 100 µM
TGI (EKVX NSCLC): > 100 µM
TGI (SK-OV-3 ovarian): > 100 µM
TGI (CAKI-1 renal): > 100 µM
TGI (MDA-MB-435): > 100 µM
TGI (HCT-15 colon): > 100 µM
TGI (K-562 leukemia): > 100 µM
TGI (LOX IMVI melanoma): > 100 µM
TGI (UACC-257 melanoma): > 100 µM
TGI (MOLT-4 leukemia): > 100 µM
TGI (NCI-H23 lung): > 100 µM
TGI (SF-268 CNS): > 100 µM
TGI (SK-MEL-5 melanoma): > 100 µM
TGI (HCC-2998 colon): > 100 µM
TGI (DU-145 prostate): > 100 µM
TGI (HS 578T breast): > 100 µM
TGI (T-47D breast): > 100 µM
TGI (MALME-3M melanoma): > 100 µM
TGI (COLO 205 colon): > 100 µM
TGI (OVCAR-8 ovarian): > 100 µM
TGI (786-0 renal): > 100 µM
TGI (NCI-H226 lung): > 100 µM
TGI (HOP-62 NSCLC): > 100 µM
TGI (RXF 393 renal): > 100 µM
TGI (PC-3 prostate): > 100 µM
TGI (HCT-116 colon): > 100 µM
TGI (RPMI-8226 leukemia): > 100 µM
TGI (UACC-62 melanoma): > 100 µM
TGI (SR leukemia): > 100 µM
TGI (UO-31 renal): > 100 µM
TGI (A549 NSCLC): > 100 µM
TGI (HOP-92 NSCLC): > 100 µM
TGI (SW-620 colon): > 100 µM
TGI (OVCAR-4 ovarian): > 100 µM
TGI (IGROV1 ovarian): > 100 µM
TGI (CCRF-CEM leukemia): > 100 µM
TGI (SK-MEL-2 melanoma): > 100 µM
TGI (OVCAR-3 ovarian): > 100 µM
TGI (HL-60(TB) leukemia): > 100 µM
TGI (SNB-19 CNS): > 100 µM
TGI (BT-549 breast): > 100 µM
TGI (SK-MEL-28 melanoma): > 100 µM
TGI (ACHN renal): > 100 µM
TGI (MDA-MB-231 breast): > 100 µM
TGI (SF-295 CNS): > 100 µM
TGI (U251 CNS): > 100 µM
TGI (MCF7 breast): > 100 µM
TGI (SF-539 CNS): > 100 µM
TGI (M14 melanoma): > 100 µM
